The subject of data set [1] is undifferentiated HL60 cells. The data set is described as follows: Intracellular Ca2+ concentration (fura-2), undifferentiated HL60 cells. Type of data set: cell-based, human. Here is the method:
(§1) The differentiated HL60 cells or undifferentiated HL60 cells were washed twice with a Hepes-Na solution (140 mM NaCl, 4 mM KCl, 1 mM NaH2PO4, 1 mM MgCl2, 1.25 mM CaCl2, 5 mM Hepes, 11 mM glucose, 0.2% BSA, pH 7.4). Then, Ca^2+ sensitive fluorescence reagent, fura-2/AM, was added to the cell suspension (4 ml: final concentration, 4 μM). The reaction mixture was then shaken gently at room temperature for 60 minutes, shielded from light in order to incorporate fura-2 into the HL60 cells. Subsequently, the cells were washed twice with a Hepes-Na solution and a cell suspension was prepared at a final cell density of 1.0×10^6 cells/ml. One milliliter of the cell suspension was put into reaction cuvettes and stimulated with various samples under stirring at 30° C. Ratios of fluorescence intensity at 500 nm (F) for an excitation wavelength at 340 nm to that at 380 nm were measured with a fluorimeter (CAF-100, Japan Spectroscopic Co., Ltd.) and [Ca^2+]i was calculated following the formula: [Ca^2+]i(nM)=K×{(F−Fmin)/(Fmax−F)}×A/B, wherein
(§2) Fmax: a ratio of fluorescence intensity at 500 nm for an excitation wavelength at 340 nm to that at 380 nm after all cells were solubilized with 0.1% Triton X-100;
(§3) Fmin: a ratio of fluorescence intensity at 500-nm for an excitation wavelength at 340 nm to that at 380 nm after the whole calcium was chelated with 4 mM EGTA;
(§4) A: fluorescence intensity at 500-nm for an excitation wavelength at 380 nm, when all the calcium was chelated with EGTA;
(§5) B: fluorescence intensity at 500-nm for an excitation wavelength at 380 nm, when all cells were solubilized with Triton X-100;
(§6) K: 224 (nM) (the dissociation constant of fura-2).

In data set [2] the test system is differentiated HL60 cells. The data set is described as follows: Intracellular Ca2+ concentration (fura-2), differentiated HL60 cells. Type of data set: cell-based, human. Conditions: differentiated HL60 cells (+). How it is done:
as §1, §2, §3, §4, §5, §6

For data set [3], the system named is differentiated HL60 cells. Type of data set: cell-based, human. As to conditions: for activity of promoting β-HA secretion / activity for β-HA secretion compared with COSP-1 and fCyt b (1-15): differentiated HL60 cells; for activity of promoting β-HA secretion: Example 12; for activity for β-HA secretion compared with COSP-1 and fCyt b (1-15): human homologues; for β-HA secretion from differentiated HL60 cells (%/total): total = β-HA released with 0.05% Triton X-100. Here is the method:
a. Cultivation of HL60 Cells and Induction to the Differentiated Neutrophil-Like Cells For cultivation, heat-inactivated FCS (final concentration; 10%), streptomycin (final concentration; 100 mg/l), penicillin G (final concentration of 10^5 units/l) and RPMI-1640 culture solution containing 10 mM Hepes (pH 7.4) were used. Cells were cultivated at a cell density of 2×10^5-1.5×10^6 cells/ml in a plastic flask (80 cm^2, 260 ml, Nunc) at 37° C. under stationary conditions with a 5% of CO2 concentration and a 100% of humidity. […] c. […] Measuring β-HA Enzyme Activity The amount of β-HA secreted into the reaction supernatant was determined by measuring the absorbance at 415 nm of p-nitrophenol that was generated by an enzymatic reaction involving p-nitrophenyl N-acetyl-β-D-glucosaminide as a substrate. To be specific, 90 μl of the reaction supernatant was transferred to a 96-well Immuno plate (Nunc) and 60 μl of a substrate solution (10 mM p-nitrophenyl N-acetyl-β-D-glucosaminide/40 mM citrate, 70 mM Na2HPO4, pH 4.5) was added to initiate an enzymatic reaction. Following a 1-hr reaction at 37° C., 100 μl of a reaction quencher (400 mM glycine, pH 10.7) was added to stop the reaction and the absorbance at 415 nm was measured. As a control, cells were treated with Triton X-100 at a final concentration of 0.05% and the amount of β-HA in the supernatant was measured. As another control, the amount of β-HA secreted from cells upon stimulation with fMLP at a final concentration of 10 μM was measured.

The subject of data set [4] is differentiated HL60 cells.
Description: (§10) The differentiated HL60 cells and human leukocyte cells were washed three times with ice-cooled 0.1% BSA containing Hepes buffered Hank's solution (HBHS; 10 mM Hepes, 136.9 mM NaCl, 5.4 mM KCl, 1.2 mM CaCl2, 0.44 mM KH2PO4, 0.49 mM MgCl2, 0.41 mM MgSO4, 0.34 mM Na2HPO4, 5.5 mM glucose, 4.2 mM NaHCO3, pH 7.4). A cell suspension was prepared for each cell type at 5.5×10^6 cells/ml. Cytochalasin B and DNase I were then added to each cell suspension at a final concentration of 5 μg/ml. Ninety μl of each cell suspension was then transferred to an ice-cooled tube (5.0×10^5 cells/tube) and incubated at 37° C. for 10 minute. To each tube, either one of the fractions of polypeptide (or extract) in solution (10 μl) was added and incubated at 37° C. for 10 minutes to stimulate the cells. Immediately after the treatment, 200 μl of ice-cooled reaction quenching buffer (25 mM Tris, 123 mM NaCl, 2.7 mM KCl, pH 7.4) was added to the cell suspensions to stop the stimulation. Thereafter, the tubes were spun down at 4° C. for 60 seconds to precipitate the cell pellets and the β-HA activity and the lactate dehydrogenase (LDH) activity in the supernatant were measured.
(§11) The amount of LDH secreted into the reaction mixture was determined by measuring the absorbance (340 nm) of NADH generated by reduction of that NAD involves dehydrogenation of lactate. Reaction was initiated by adding a 400 μl of a substrate-buffer solution (125 mM 2-amino-2-methyl-1-propanol, 125 mM lithium lactate, 6.25 mM NAD, pH 9.5) to a 100 μl of the reaction supernatant. Following a 1-hr incubation at 37° C., the mixture was quenched in ice water to stop the reaction and the absorbance at 340 nm was measured.
(§12) The LDH enzyme activity secreted in the reaction mixture was expressed as the percentage of the total enzyme activity in cells (%/total) which was the enzyme activity of LDH released upon disruption of the cells with 0.05% Triton X-100.
Data set [5] concerns differentiated HL60 cells. The data set is described as follows: LDH leakage from HL60 cells. As to conditions: differentiated HL60 cells, Example 4. (LDH leaks from cells whose membrane has failed.)
Description: as §10, §11, §12
Data set [6] concerns undifferentiated HL60 cells. The data set is described as follows: Migration promoting activity (Chemotaxis Cells), undifferentiated HL60 cells. Type of data set: cell-based, human. Here is the method:
(§7) The migration promoting activity of each of the polypeptides of interest was measured using Chemotaxis Cells (Kurabo) as follows: The differentiated HL60 cells or undifferentiated HL60 cells were washed three times with ice-cooled HBHS and a cell suspension was prepared at a cell density of 4×10^6 cells/ml. The cell suspension was incubated at 37° C. for 10 minutes; thereafter, 500 μl of the cell suspension was transferred to Chemotaxis Cells (2×10^6 cells/Cell), which were put on a micro-well plate filled with pre-heated (37° C.) HBHS containing 1 ml of polypeptide and incubation was performed at 37° C. for 1 hour. Then, the Chemotaxis Cells were removed from the plate and the number of cells that had migrated in each well was counted.
(§8) Migration promoting activity was expressed by a chemotaxis index, or the number of cells that migrated upon stimulation was divided by the number of cells migrated without stimuli.
The activity of the human homologues of COSP-1 and fCyt b (1-15) for promoting β-HA secretion and migration promoting activities were measured following the methods described in Examples 4 and 5, respectively. […]

For data set [7], the system named is undifferentiated HL60 cells. The data set is described as follows: β-HA secretion from undifferentiated HL60 cells (Example 12). As to conditions: data not shown. It counts as cell-based, human. How it is done:
(§9) The activity of the human homologues of COSP-1 and fCyt b (1-15) for promoting β-HA secretion and migration promoting activities were measured following the methods described in Examples 4 and 5, respectively. The activity for β-HA secretion was expressed by the percentage for the maximum amount of secretion upon stimulation with 10 μM of fMLP, whereas the activity for migration was expressed by a chemotaxis index, i.e., the ratio of the number of stimulated migrating cells to that of unstimulated migrating cells.

Data set [8] relates to differentiated HL60 cells. The data set is described as follows: Migration promoting activity (Chemotaxis Cells), differentiated HL60 cells. Type of data set: cell-based, human. Conditions: for activity for migration at the concentrations where β-HA secretion was observed / concentrations of migration activity relative to the concentration for β-HA secretion: Example 12. How it is done: as §7, §8, §9

Where two headings read alike, the source gives them in different places. Where a SMILES comes first, the peptide text is derived from it. Where no end group is shown, it is not given here. The star is where a group is joined. For = O=C*

As to `Nc1ncnc2c1ncn2[C@@H]1O[C@H](COP(=O)(O)OP(=O)(O)OP(=O)(O)O)[C@@H](O)[C@H]1O` [ATP], the “intracellular Ca2+ concentration” value in data set [1] and in data set [2] was “increased” each time.
One may read the EC50 as the concentration giving half of the maximal effect. The low end stands for an effect from little substance, the high end for a need for much substance. The molecule `CC[C@H](C)[C@H](NC(=O)[C@H](CC(N)=O)NC(=O)[C@@H](NC(=O)[C@H](CCSC)NC=O)[C@@H](C)O)C(=O)N[C@@H](CCCNC(=N)N)C(=O)N[C@@H](CCCCN)C(=O)N[C@@H](CO)C(=O)N[C@@H](Cc1c[nH]cn1)C(=O)N1CCC[C@H]1C(=O)N[C@@H](CC(C)C)C(=O)N[C@@H](CCSC)C(=O)N[C@@H](CCCCN)C(=O)N[C@H](C(=O)N[C@H](C(=O)N[C@@H](CC(N)=O)C(=O)O)[C@@H](C)CC)[C@@H](C)CC` [fCyt b (1-15), fMet-Thr-Asn-Ile-Arg-Lys-Ser-His-Pro-Leu-Met-Lys-Ile-Ile-Asn] (For-MTNIRKSHPLMKIIN-OH) gave an EC50 in data set [3] of 38 ± 3.4 nM.
Take `CC[C@H](C)[C@H](NC(=O)[C@H](CC(N)=O)NC(=O)[C@@H](NC(=O)[C@H](CCSC)NC=O)[C@@H](C)O)C(=O)N[C@@H](CCCNC(=N)N)C(=O)N[C@@H](CCCCN)C(=O)N[C@@H](CO)C(=O)N[C@@H](Cc1cnc[nH]1)C(=O)N1CCC[C@H]1C(=O)N[C@@H](CC(C)C)C(=O)N[C@@H](CCSC)C(=O)N[C@@H](CCCCN)C(=O)N[C@H](C(=O)N[C@H](C(=O)N[C@@H](CC(N)=O)C(=O)O)[C@@H](C)CC)[C@@H](C)CC` [fCyt b (1-15), fMet-Thr-Asn-Ile-Arg-Lys-Ser-His-Pro-Leu-Met-Lys-Ile-Ile-Asn] (For-MTNIRKSHPLMKIIN-OH): the “LDH leakage out of the cells” value in data set [4] is given as “no LDH was found to leak out”.
For the molecule MTNIRKSHPLMKIIN [Cyt b (1-15)], the “LDH leakage out of the cells” value in data set [5] is recorded as “no LDH was found to leak out”.
For the molecule VTFLLPAGWILSHLETYRRPE [Human COSP-1], the migration promoting activity result in data set [6] is listed as “not observed”. For the same molecule, in data set [3], the “activity of promoting β-HA secretion” value is “showed the activity”; the “activity for β-HA secretion compared with COSP-1 and fCyt b (1-15)” value is listed as “comparable”; the “β-HA secretion from differentiated HL60 cells (%/total)” value is 53.5 %/total. For the same molecule, the “activity of promoting β-HA secretion” value in data set [7] is “not observed”. In addition, in data set [8], the “migration promoting (attracting) activity” value is “showed the activity”, the “activity for migration at the concentrations where β-HA secretion was observed” value is reported as “desensitized” and the “concentrations of migration activity relative to the concentration for β-HA secretion” value was “observed at concentrations lower”.
With “fMet-Thr-Pro-Met-Arg-Lys-Ile-Asn-Pro-Leu-Met-Lys-Leu-Ile-Asn (For-MTPMRKINPLMKLIN; listed as Homo sapiens) [Human fCyt b (1-15)]”, in data set [6], the migration promoting activity entry was “not observed”. Also, in data set [3], the “activity of promoting β-HA secretion” value is reported as “showed the activity”; the “activity for β-HA secretion compared with COSP-1 and fCyt b (1-15)” value is given as “comparable”; the “β-HA secretion from differentiated HL60 cells (%/total)” value is reported as 65.9 %/total. For the same molecule, the “activity of promoting β-HA secretion” value in data set [7] is “not observed”. Also, in data set [8], the “migration promoting (attracting) activity” value is listed as “showed the activity”, the “activity for migration at the concentrations where β-HA secretion was observed” value is recorded as “desensitized” and the “concentrations of migration activity relative to the concentration for β-HA secretion” value was “observed at concentrations lower”.

The values above are taken from patent US7285618B1, “Polypeptides having neutrophil stimulating activity” (Japan Tobacco Inc., priority 2000, dated 2007).
